From ChEMBL document CHEMBL1131906, “Synthesis and structure-activity relationships of new second-generation taxoids” (Bioorg Med Chem Lett, 1999)

Legend:
MCF7 [1] = assay: Inhibitory activity against the growth of MCF-7R ( multi drug resistant human breast carcinoma) cell line after 72 hours of drug exposure; assay type: functional, cell-based; conditions: MCF7, 72 h
[2] = Inhibitory activity against the growth of LCC6-WT (human breast carcinoma) cell line after 72 hours of drug exposure; assay type: functional
MCF7 [3] = assay: Inhibitory activity against the growth of MCF-7 (human breast carcinoma) cell line after 72 hours of drug exposure; assay type: functional, cell-based; conditions: MCF7, 72 h
[4] = Inhibitory activity against the growth of LCC6-MDR (Multi Drug Resistant 1 transduced line) cell line after 72 hours of drug exposure; assay type: functional; conditions: Homo sapiens, LCC6MDR
MCF7 [5] = assay: Ratio of activities, drug resistant (R) to drug sensitive (S) carcinoma cell lines; assay type: functional, Homo sapiens

Work on `CCC(=O)O[C@H]1C(=O)[C@@]2(C)C([C@H](OC(=O)c3cccc(OC)c3)[C@]3(O)C[C@H](OC(=O)[C@H](O)[C@@H](NC(=O)OC(C)(C)C)[C@H]4CC4(C)C)C(C)=C1C3(C)C)[C@]1(OC(C)=O)CO[C@@H]1C[C@@H]2O` (some centres undefined) yielded an IC50 (MCF7 [1]) of 1.5 nM, an IC50 [2] of 0.48 nM and an IC50 (MCF7 [3]) of 0.6 nM.

Compound `CCC(=O)O[C@H]1C(=O)[C@@]2(C)C([C@H](OC(=O)c3cccc(F)c3)[C@]3(O)C[C@H](OC(=O)[C@H](O)[C@H](C=C(C)C)NC(=O)OC(C)(C)C)C(C)=C1C3(C)C)[C@]1(OC(C)=O)CO[C@@H]1C[C@@H]2O` (some centres undefined) has an IC50 [2] of 0.5 nM.

With `COc1cccc(C(=O)O[C@H]2C3[C@](C)(C(=O)[C@H](OC(C)=O)C4=C(C)[C@@H](OC(=O)[C@H](O)[C@H](C=C(C)C)NC(=O)OC(C)(C)C)C[C@]2(O)C4(C)C)[C@@H](O)C[C@H]2OC[C@@]32OC(C)=O)c1` (some centres undefined) the IC50 (MCF7 [1]) was 2.3 nM, the IC50 [2] was 0.6 nM and the IC50 (MCF7 [3]) was 0.8 nM.

Work on `CCC(=O)O[C@H]1C(=O)[C@@]2(C)C([C@H](OC(=O)c3cccc(OC)c3)[C@]3(O)C[C@H](OC(=O)[C@H](O)[C@@H](NC(=O)OC(C)(C)C)C(F)F)C(C)=C1C3(C)C)[C@]1(OC(C)=O)CO[C@@H]1C[C@@H]2O` (some centres undefined) yielded an IC50 (MCF7 [1]) of 4.3 nM, an IC50 [2] of 1.5 nM and an IC50 (MCF7 [3]) of 0.4 nM.

`COc1cccc(C(=O)O[C@H]2C3[C@](C)(C(=O)[C@H](OC(=O)C4CC4)C4=C(C)[C@@H](OC(=O)[C@H](O)[C@H](C=C(C)C)NC(=O)OC(C)(C)C)C[C@]2(O)C4(C)C)[C@@H](O)C[C@H]2OC[C@@]32OC(C)=O)c1` (some centres undefined) gave an IC50 [4] of 2.9 nM, an IC50 [2] of 1 nM and a Ratio (MCF7 [5]) of 2.9.

In the case of `C=CCC[C@H](NC(=O)OC(C)(C)C)[C@@H](O)C(=O)O[C@H]1C[C@@]2(O)[C@@H](OC(=O)c3cccc(OC)c3)C3[C@](C)(C(=O)[C@H](OC(=O)CC)C(=C1C)C2(C)C)[C@@H](O)C[C@H]1OC[C@@]31OC(C)=O` (some centres undefined), the IC50 (MCF7 [1]) is reported as 7.7 nM, the IC50 [2] is reported as 0.9 nM and the IC50 (MCF7 [3]) is reported as 2 nM.

In the case of `CCC(=O)O[C@H]1C(=O)[C@@]2(C)C([C@H](OC(=O)c3cccc(F)c3)[C@]3(O)C[C@H](OC(=O)[C@H](O)[C@H](CC(C)C)NC(=O)OC(C)(C)C)C(C)=C1C3(C)C)[C@]1(OC(C)=O)CO[C@@H]1C[C@@H]2O` (some centres undefined), the IC50 [2] is reported as 0.4 nM.

`C/C=C\[C@H](NC(=O)OC(C)(C)C)[C@@H](O)C(=O)O[C@H]1C[C@@]2(O)[C@@H](OC(=O)c3cccc(OC)c3)C3[C@](C)(C(=O)[C@H](OC(=O)CC)C(=C1C)C2(C)C)[C@@H](O)C[C@H]1OC[C@@]31OC(C)=O` (some centres undefined) showed an IC50 [2] of 1.2 nM.

With `CCC(=O)O[C@H]1C(=O)[C@@]2(C)C([C@H](OC(=O)c3cccc(Cl)c3)[C@]3(O)C[C@H](OC(=O)[C@H](O)[C@H](C=C(C)C)NC(=O)OC(C)(C)C)C(C)=C1C3(C)C)[C@]1(OC(C)=O)CO[C@@H]1C[C@@H]2O` (some centres undefined) the IC50 [2] was 0.8 nM.

`CCC(=O)O[C@H]1C(=O)[C@@]2(C)C([C@H](OC(=O)c3cccc(N=[N+]=[N-])c3)[C@]3(O)C[C@H](OC(=O)[C@H](O)[C@H](CC(C)C)NC(=O)OC(C)(C)C)C(C)=C1C3(C)C)[C@]1(OC(C)=O)CO[C@@H]1C[C@@H]2O` (some centres undefined) showed an IC50 (MCF7 [1]) of 2.1 nM, an IC50 [2] of 1.1 nM and an IC50 (MCF7 [3]) of 1 nM.

With `CCC(=O)O[C@H]1C(=O)[C@@]2(C)C([C@H](OC(=O)c3cccc(OC)c3)[C@]3(O)C[C@H](OC(=O)[C@H](O)[C@H](C=C(C)C)NC(=O)OC(C)(C)C)C(C)=C1C3(C)C)[C@]1(OC(C)=O)CO[C@@H]1C[C@@H]2O` (some centres undefined) the IC50 (MCF7 [1]) was 0.33 nM, the IC50 [2] was 1 nM and the IC50 (MCF7 [3]) was 0.36 nM.

`C=CC[C@H](NC(=O)OC(C)(C)C)[C@@H](O)C(=O)O[C@H]1C[C@@]2(O)[C@@H](OC(=O)c3cccc(OC)c3)C3[C@](C)(C(=O)[C@H](OC(=O)CC)C(=C1C)C2(C)C)[C@@H](O)C[C@H]1OC[C@@]31OC(C)=O` (some centres undefined) gave an IC50 (MCF7 [1]) of 8.7 nM, an IC50 [2] of 1.2 nM and an IC50 (MCF7 [3]) of 0.8 nM.

Compound `CC(=O)O[C@H]1C(=O)[C@@]2(C)C([C@H](OC(=O)c3cccc(C)c3)[C@]3(O)C[C@H](OC(=O)[C@H](O)[C@H](C=C(C)C)NC(=O)OC(C)(C)C)C(C)=C1C3(C)C)[C@]1(OC(C)=O)CO[C@@H]1C[C@@H]2O` (some centres undefined) has an IC50 (MCF7 [1]) of 5 nM, an IC50 [2] of 1.5 nM and an IC50 (MCF7 [3]) of 0.8 nM.

`C=Cc1cccc(C(=O)O[C@H]2C3[C@](C)(C(=O)[C@H](OC(=O)CC)C4=C(C)[C@@H](OC(=O)[C@H](O)[C@H](C=C(C)C)NC(=O)OC(C)(C)C)C[C@]2(O)C4(C)C)[C@@H](O)C[C@H]2OC[C@@]32OC(C)=O)c1` (some centres undefined) showed an IC50 [2] of 2.9 nM.

Compound `CCC(=O)O[C@H]1C(=O)[C@@]2(C)C([C@H](OC(=O)c3cccc(N=[N+]=[N-])c3)[C@]3(O)C[C@H](OC(=O)[C@H](O)[C@H](C=C(C)C)NC(=O)OC(C)(C)C)C(C)=C1C3(C)C)[C@]1(OC(C)=O)CO[C@@H]1C[C@@H]2O` (some centres undefined) has an IC50 (MCF7 [1]) of 1.1 nM, an IC50 [2] of 0.9 nM and an IC50 (MCF7 [3]) of 0.9 nM.

`CC(=O)O[C@@]12CO[C@@H]1C[C@H](O)[C@@]1(C)C(=O)[C@H](O)C3=C(C)[C@@H](OC(=O)[C@H](O)[C@@H](NC(=O)OC(C)(C)C)c4ccccc4)C[C@@](O)([C@@H](OC(=O)c4ccccc4)[C@H]21)C3(C)C.O.O.O` [DOCETAXEL] gave an IC50 [4] of 120 nM and an IC50 [2] of 1 nM.

For `CC(=O)O[C@H]1C(=O)[C@@]2(C)[C@H]([C@H](OC(=O)c3ccccc3)[C@]3(O)C[C@H](OC(=O)[C@H](O)[C@@H](NC(=O)c4ccccc4)c4ccccc4)C(C)=C1C3(C)C)[C@]1(OC(C)=O)CO[C@@H]1C[C@@H]2O` [PACLITAXEL], the IC50 [4] was 346 nM and the IC50 [2] was 3.1 nM.
